Tests used:
Saccharomyces cerevisiae [1] = test: Cytotoxicity against yeast cells relative to Tetraol; assay type: functional, organism-based
Saccharomyces cerevisiae [2] = test: Cytotoxicity against yeast cells assessed as logarithm of ratio of toxicity of test compound to Tetraol; assay type: functional, organism-based

SMILES | Ratio (Saccharomyces cerevisiae [1]) | Activity (Saccharomyces cerevisiae [2])
CC(=O)OC[C@]12CCC(C)=C[C@H]1O[C@@H]1[C@H](OC(C)=O)[C@@H](OC(C)=O)[C@@]2(C)[C@]12CO2 | 2.2 | 2.2
CC(=O)OC[C@]12CCC(C)=C[C@H]1O[C@@H]1[C@H](O)[C@@H](OC(C)=O)[C@@]2(C)[C@]12CO2 | 343 | 343

Source: ChEMBL document CHEMBL1153782, “3D QSAR study of the toxicity of trichothecene mycotoxins” (Eur J Med Chem, 2009)
